We go through seven molecules from ChEMBL document CHEMBL1201862, “PubChem BioAssay data set” (2004).

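Interpolation was linear, between the two tested concentrations surrounding the appropriate level; five concentrations were tested over 48 hours in 96-well plates. The concentration for 50% growth inhibition is given as GI50.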 Calls of active or inactive are those of the source. Cut-off read from the data, not from the text of the source: active = GI50 up to about 1.1 µM and inactive = higher. Some results are limits rather than exact numbers.

Broadly, the GI50 is the concentration giving 50% growth inhibition.

Test systems include NCI/ADR-RES; M14; MOLT-4; SF-539; SW-620; Hs-578T; HT-29; COLO 205; SNB-75; Malme-3M; TK-10; MDA-N; UACC-62; A549; HL-60; NCI-H226; ACHN; SK-MEL-5; MDA-MB-231; 786-0.
Assay in all cases: DTP human tumour cell line panel, 48 h

Take `OC(COc1ccc(Cl)cc1Cl)CN1CCCC1` (stereo not given): the GI50 was > 100 µM (inactive) in the experiment with NCI/ADR-RES; 20 µM (inactive) in the experiment on M14; 42.6 µM (inactive) in the experiment with MOLT-4; > 100 µM (inactive) in the experiment on SF-539; > 100 µM (inactive) with SW-620; 58.3 µM (inactive) in the experiment on Hs-578T. Moreover, the GI50 in the experiment on HT-29 is 24.8 µM (inactive); with COLO 205, > 100 µM (inactive); in the experiment on SNB-75, 50.6 µM (inactive); in the experiment on Malme-3M, 60.1 µM (inactive); in the experiment on TK-10, > 100 µM (inactive); in the experiment with MDA-N, 56.6 µM (inactive). Moreover, the GI50 in the experiment with UACC-62 is 21.7 µM (inactive); in the experiment on A549, > 100 µM (inactive); in the experiment on HL-60, 42.7 µM (inactive); in the experiment with NCI-H226, 88.7 µM (inactive); in the experiment with ACHN it was > 100 µM (inactive); in the experiment on SK-MEL-5, 27.9 µM (inactive). Also, the GI50 with MDA-MB-231 and in the experiment on 786-0 was > 100 µM (inactive) throughout.

Turning to `COc1cc(-c2nc3ccccn3c2/N=C/c2cc(Br)cc(Br)c2O)ccc1O`, the GI50 with NCI/ADR-RES is 22 µM (inactive); in the experiment on M14, 18.2 µM (inactive); in the experiment on MOLT-4, 22.9 µM (inactive); with SF-539 it was 27.4 µM (inactive); in the experiment on SW-620, 26.4 µM (inactive); in the experiment with Hs-578T it was 26.1 µM (inactive). Also, the GI50 is 22.3 µM (inactive) in the experiment with HT-29; 26.9 µM (inactive) with COLO 205; 24 µM (inactive) in the experiment on SNB-75; 23.3 µM (inactive) in the experiment on Malme-3M; 23.9 µM (inactive) with TK-10; 22.4 µM (inactive) in the experiment with MDA-N. Also, the GI50 in the experiment with UACC-62 was 27 µM (inactive); in the experiment with A549, > 100 µM (inactive); in the experiment on HL-60, 18.2 µM (inactive); in the experiment with NCI-H226, 24.1 µM (inactive); with ACHN it was 48.8 µM (inactive); with SK-MEL-5, 25.5 µM (inactive). Also, the GI50 is 15.6 µM (inactive) with MDA-MB-231 and 18 µM (inactive) in the experiment with 786-0.

Regarding `Cc1cc2c3ccccc3n(C)c2c2c1C(=O)C=CC2=O`, the GI50 in the experiment on NCI/ADR-RES was 33.9 µM (inactive); in the experiment on M14 it was 17.8 µM (inactive); in the experiment with MOLT-4 it was 6.76 µM (inactive); in the experiment with SF-539, 21.6 µM (inactive); with SW-620, 10.7 µM (inactive); in the experiment on Hs-578T, 22.3 µM (inactive). Moreover, the GI50 is 9.62 µM (inactive) in the experiment with HT-29; 17.9 µM (inactive) in the experiment with COLO 205; 27 µM (inactive) in the experiment with SNB-75; 20 µM (inactive) in the experiment on Malme-3M; 16.5 µM (inactive) in the experiment with TK-10; 12.9 µM (inactive) in the experiment with MDA-N. The GI50 in the experiment with UACC-62 is 16.3 µM (inactive); with A549, 40.4 µM (inactive); in the experiment on HL-60 it was 5.24 µM (inactive); with NCI-H226, 21.2 µM (inactive); in the experiment on ACHN, 20.9 µM (inactive); in the experiment on SK-MEL-5 it was 27.4 µM (inactive). Moreover, the GI50 was 15.3 µM (inactive) in the experiment on MDA-MB-231 and 5.78 µM (inactive) in the experiment on 786-0.

For the molecule `O=C1c2ccccc2CC12Cc1ccc3c(c1C2)CCC3` (stereo not given), the GI50 in the experiment with NCI/ADR-RES is 4.24 µM (inactive); in the experiment on M14, 19.1 µM (inactive); in the experiment with MOLT-4 it was 23.8 µM (inactive); with SF-539 it was 27.5 µM (inactive); with SW-620 it was 30.5 µM (inactive); in the experiment with Hs-578T it was 21 µM (inactive). The GI50 is 13.3 µM (inactive) with HT-29; 19 µM (inactive) with COLO 205; 20.3 µM (inactive) in the experiment on SNB-75; 13.6 µM (inactive) in the experiment on Malme-3M; 2.36 µM (inactive) with TK-10; 19.8 µM (inactive) in the experiment with MDA-N. Moreover, the GI50 was 20.3 µM (inactive) with UACC-62; 17.5 µM (inactive) with A549; 12.6 µM (inactive) in the experiment with HL-60; 22.8 µM (inactive) in the experiment with NCI-H226; 22.6 µM (inactive) in the experiment on ACHN; 15.5 µM (inactive) in the experiment on SK-MEL-5. For the same molecule, the GI50 with MDA-MB-231 was 12 µM (inactive); in the experiment with 786-0, 20.6 µM (inactive).

On to `COc1ccc(-c2nnc(CCCCCCCCc3nnc(-c4ccc(OC)cc4)n3N)n2N)cc1`, for which the GI50 in the experiment on NCI/ADR-RES is > 31.6 µM (inactive); in the experiment on M14, > 100 µM (inactive); in the experiment with MOLT-4, > 100 µM (inactive); in the experiment with SF-539, > 76.2 µM (inactive); in the experiment with SW-620 it was > 100 µM (inactive); in the experiment with Hs-578T, > 59 µM (inactive). The GI50 was > 100 µM (inactive) in the experiment with HT-29; > 100 µM (inactive) in the experiment with COLO 205; 37.9 µM (inactive) in the experiment with SNB-75; > 100 µM (inactive) with Malme-3M; > 60 µM (inactive) in the experiment on TK-10; > 100 µM (inactive) with MDA-N. Also, the GI50 in the experiment with UACC-62 was > 92 µM (inactive); in the experiment on A549, > 100 µM (inactive); in the experiment on HL-60, > 100 µM (inactive); in the experiment on NCI-H226, > 100 µM (inactive); with ACHN it was > 100 µM (inactive); with SK-MEL-5, > 100 µM (inactive). Besides, the results for the GI50 in the experiment on MDA-MB-231 and in the experiment with 786-0 were > 57.8 µM (inactive) and > 31.6 µM (inactive), respectively.

In the case of `COc1cc2c(cc1OC)[C@H]1C(=O)c3cc4c(cc3[C@H]1N(C)C2=O)OCO4`, the GI50 in the experiment on NCI/ADR-RES was 4.81 µM (inactive); in the experiment with M14, 2.92 µM (inactive); in the experiment on MOLT-4 it was 0.3 µM (active); in the experiment on SF-539 it was 3.94 µM (inactive); in the experiment on SW-620 it was 2.44 µM (inactive); in the experiment with Hs-578T it was > 94.6 µM (inactive). In addition, the GI50 is 5.27 µM (inactive) with HT-29; 6.14 µM (inactive) in the experiment on COLO 205; 8.77 µM (inactive) with SNB-75; 7.53 µM (inactive) in the experiment on Malme-3M; > 100 µM (inactive) in the experiment with TK-10; 12.1 µM (inactive) in the experiment with MDA-N. The GI50 in the experiment with UACC-62 was 0.879 µM (active); in the experiment on A549, 21.8 µM (inactive); in the experiment on HL-60, 1.77 µM (inactive); in the experiment on NCI-H226, 1.81 µM (inactive); in the experiment on ACHN it was 0.682 µM (active); with SK-MEL-5, 1.96 µM (inactive). The GI50 in the experiment on MDA-MB-231 was 28 µM (inactive); in the experiment on 786-0, 4.41 µM (inactive).

Consider `CCCCCCCCCCC(O)C1CCC(C2CCC(C(O)CCCCC(O)CCCCCC(O)CC3=CC(C)OC3=O)O2)O1` (stereo not given), for which the GI50 in the experiment with NCI/ADR-RES was 2.46 µM (inactive); in the experiment on M14, > 25 µM (inactive); in the experiment with MOLT-4, 2.97 µM (inactive); with SF-539, > 25 µM (inactive); in the experiment on SW-620, > 25 µM (inactive); in the experiment on Hs-578T, 4.75 µM (inactive). Also, the GI50 in the experiment on HT-29 was 3.21 µM (inactive); with COLO 205, > 25 µM (inactive); in the experiment with SNB-75, 5.16 µM (inactive); in the experiment on Malme-3M, > 25 µM (inactive); in the experiment on TK-10, > 25 µM (inactive); in the experiment with MDA-N, 3.86 µM (inactive). The GI50 was 1.2 µM (inactive) in the experiment on UACC-62; > 20.9 µM (inactive) with A549; 2.36 µM (inactive) in the experiment on HL-60; 3.82 µM (inactive) with NCI-H226; > 25 µM (inactive) with ACHN; 0.258 µM (active) with SK-MEL-5. For the same molecule, the GI50 in the experiment on MDA-MB-231 and in the experiment on 786-0 was > 25 µM (inactive) throughout.
